Legend:
Fibroporia radiculosa = assay: Laboratory soil-block decay resistance test, AWPA Standard E10-2015, treated southern pine sapwood cubes; format: cell-based; details: micronized penflufen
Procedure: (§1) The synergism was determined using a modified method as described by Kull et al. (Applied Microbiology, 1961 (9): 538-541). The modified method is described as below: QA/Qa+QB/Qb=SI • Where: • Qa=concentration of substance A alone which controls a particular decay fungus • Qb=concentration of substance B alone which controls a particular decay fungus • QA=concentration of substance A in the concentration of the A and B mixture at which controls a particular decay fungus • QB=concentration of substance B in the concentration of the A and B mixture at which controls a particular decay fungus • SI=1 means additivity • SI>1 means antagonism • SI<1 means synergism
(§2) Wood cubes measuring 19 mm×19 mm×19 mm were prepared from southern pine sapwood. One set of wood cubes were pressured treated with serial treating solutions containing penflufen fungicide. A second set of wood cubes were pressure treated with treating solutions containing the copper fungicide. A third set of wood cubes were pressure treated with treating solutions containing a mixture of the copper and penflufen. The treated wood samples were exposed to various fungi to conduct a laboratory decay resistance test following protocols as described in American Wood Protection Association Standard E10-2015. Before and after exposure to fungi, the wood samples were weighed to determine the weight percent loss. No weight loss means complete control of the fungal attack.
(§3) Wood cubes measuring 19 mm×19 mm×19 mm were prepared from southern pine sapwood. The wood cubes were pressure treated with treating solutions containing micronized penflufen. The treated wood samples were exposed to various fungi to conduct a laboratory decay resistance test following protocols as described in American Wood Protection Association Standard E10-2015. Before and after exposure to fungi, the wood samples were weighed to determine the weight percent loss.

Gloeophyllum trabeum = assay: as above; format: cell-based; details: micronized penflufen
Procedure: as §1, §2, §3

Postia placenta = assay: as above; format: cell-based; details: micronized penflufen
Procedure: as §1, §2, §3

Coniophora puteana = assay: as above; format: cell-based; details: micronized penflufen
Procedure: as §1, §2, §3

[1] = Particle size of penflufen after milling with 1 mm zirconia; format: physicochemical; details: milled with 1 mm zirconia
Description: The attainment of the injectable size, which generally requires both a d50 below 0.5 microns and a d98 less than three times the d50, was a surprising development. […] Milling a milling-resistant organic biocide, such as penflufen, with 1 mm zirconia provided a penflufen product with a d50 of 2 to 3 microns.

## Cc1nn(C)c(F)c1C(=O)Nc1ccccc1C(C)CC(C)C (stereo not drawn) [Penflufen, penflufen]
Fibroporia radiculosa; Penflufen Retention 8 g/m^3
  Mean Percent Weigh Loss of Treated Wood Cubes: 12.0%
Fibroporia radiculosa; Penflufen Retention 12 g/m^3
  Mean Percent Weigh Loss of Treated Wood Cubes: 10.4%
Fibroporia radiculosa; Penflufen Retention 16 g/m^3
  Mean Percent Weigh Loss of Treated Wood Cubes: 8.2%
Fibroporia radiculosa; Penflufen Retention 24 g/m^3
  Mean Percent Weigh Loss of Treated Wood Cubes: 8.2%
Fibroporia radiculosa; Penflufen Retention 32 g/m^3
  Mean Percent Weigh Loss of Treated Wood Cubes: 5.4%
Fibroporia radiculosa; Penflufen Retention 48 g/m^3
  Mean Percent Weigh Loss of Treated Wood Cubes: 5.7%
Fibroporia radiculosa; Penflufen Retention 64 g/m^3
  Mean Percent Weigh Loss of Treated Wood Cubes: 4.4%
Fibroporia radiculosa; Penflufen Retention 80 g/m^3
  Mean Percent Weigh Loss of Treated Wood Cubes: 3.0%
Gloeophyllum trabeum; Penflufen Retention 8 g/m^3
  Mean Percent Weigh Loss of Treated Wood Cubes: 3.1%
Gloeophyllum trabeum; Penflufen Retention 12 g/m^3
  Mean Percent Weigh Loss of Treated Wood Cubes: 2.9%
Gloeophyllum trabeum; Penflufen Retention 16 g/m^3
  Mean Percent Weigh Loss of Treated Wood Cubes: 3.6%
Gloeophyllum trabeum; Penflufen Retention 24 g/m^3
  Mean Percent Weigh Loss of Treated Wood Cubes: 3.0%
Gloeophyllum trabeum; Penflufen Retention 32 g/m^3
  Mean Percent Weigh Loss of Treated Wood Cubes: 3.5%
Gloeophyllum trabeum; Penflufen Retention 48 g/m^3
  Mean Percent Weigh Loss of Treated Wood Cubes: 3.0%
Gloeophyllum trabeum; Penflufen Retention 64 g/m^3
  Mean Percent Weigh Loss of Treated Wood Cubes: 1.6%
Gloeophyllum trabeum; Penflufen Retention 80 g/m^3
  Mean Percent Weigh Loss of Treated Wood Cubes: 2.0%
Postia placenta; Penflufen Retention 8 g/m^3
  Mean Percent Weigh Loss of Treated Wood Cubes: 3.5%
Postia placenta; Penflufen Retention 12 g/m^3
  Mean Percent Weigh Loss of Treated Wood Cubes: 1.9%
Postia placenta; Penflufen Retention 16 g/m^3
  Mean Percent Weigh Loss of Treated Wood Cubes: 2.1%
Postia placenta; Penflufen Retention 24 g/m^3
  Mean Percent Weigh Loss of Treated Wood Cubes: 1.2%
Postia placenta; Penflufen Retention 32 g/m^3
  Mean Percent Weigh Loss of Treated Wood Cubes: 1.2%
Postia placenta; Penflufen Retention 48 g/m^3
  Mean Percent Weigh Loss of Treated Wood Cubes: 1.1%
Postia placenta; Penflufen Retention 64 g/m^3
  Mean Percent Weigh Loss of Treated Wood Cubes: 1.1%
Postia placenta; Penflufen Retention 80 g/m^3
  Mean Percent Weigh Loss of Treated Wood Cubes: 1.3%
Coniophora puteana; Penflufen Retention 8 g/m^3
  Mean Percent Weigh Loss of Treated Wood Cubes: 1.4%
Coniophora puteana; Penflufen Retention 12 g/m^3
  Mean Percent Weigh Loss of Treated Wood Cubes: 1.6%
Coniophora puteana; Penflufen Retention 16 g/m^3
  Mean Percent Weigh Loss of Treated Wood Cubes: 1.6%
Coniophora puteana; Penflufen Retention 24 g/m^3
  Mean Percent Weigh Loss of Treated Wood Cubes: 1.5%
Coniophora puteana; Penflufen Retention 32 g/m^3
  Mean Percent Weigh Loss of Treated Wood Cubes: 1.1%
Coniophora puteana; Penflufen Retention 48 g/m^3
  Mean Percent Weigh Loss of Treated Wood Cubes: 1.4%
Coniophora puteana; Penflufen Retention 64 g/m^3
  Mean Percent Weigh Loss of Treated Wood Cubes: 2.0%
Coniophora puteana; Penflufen Retention 80 g/m^3
  Mean Percent Weigh Loss of Treated Wood Cubes: 1.3%
[1]
  d50: 2 to 3 microns

Source: patent US12279615B2, “Wood preservative and method for producing same” (Koppers Performance Chemicals Inc., priority 2016, dated 2025)
